Assay results from patent publication US20100104509A1, “HUMAN ANTIBODIES THAT BIND CD19 AND USES THEREOF” (Medarex, Inc., priority 2006, published 2010).

Tested on: B-cells (CD22) in human whole blood
Assay: Whole blood B-cell depletion assay
Type: cell-based
Conditions: overnight 37° C.; for % Change: B-cell depletion vs non-treated group
Method: To determine if the anti-CD19 antibodies were capable of depleting B-cells, a whole blood B-cell depletion assay was set up.
Human whole blood was purchased from AllCells Inc. (Berkeley, Calif.) and delivered the same day at room temperature. Two ml of whole blood was incubated in the absence or presence of […] of the indicated antibodies, or PBS as the untreated group. The blood-antibody mixture was incubated overnight at 37° C. with 5% CO2. On the day of the experiment, the blood was lysed twice with RBC lysis buffer at 1:10 ratio by incubating for 10 minutes followed by centrifugation. After the second spin, the cell pellets were washed once with FACS buffer (PBS plus Calcium and Magnesium with 2% FBS and 20% versene), and followed by FAGS staining with anti-CD3 antibody (Becton Dickinson) as the T-Cell makers and anti-CD22 antibody (Becton Dickinson) as a B-cell makers using standard Flow cytometry protocols. Cells were incubated on ice for 20 min prior to the final washes and resuspended in […] propidium iodide solution (Sigma) in FACS buffer. Data was collected by flow cytometry using a FASCalibur system and CellQuest software by Becton Dickinson, and analyzed via FlowJo software using lymphocyte size gating. Percent change was calculated by determining the % positive B-cells in the non-treated group minus the % positive B-cells in the antibody treated group divided by % positive B-cells in the non treated group times 100. From a healthy blood donor, 8.7% B-cells remained in the blood following an overnight incubation (no antibody). Incubating whole blood with […] of positive control Rituxan led to a 46% depletion in the number of B-cells when compared to the untreated, no antibody group.

## Rituxan: positive control in the whole blood B-cell depletion assay [reference compound]
  % Change: 46%
Listed as Rituxan ®
  % Change: 46.3%
1-30 mg/ml antibody
  % Positive (CD22): 4.7%
